Series [1] deals with T1, Peptidyl-prolyl cis-trans isomerase FKBP1A (Homo sapiens, UniProt P62942). The experiment in a line: Inhibition of FKBP12-mediated calcineurin activation in PMA/ionomycin stimulated human Jurkat cells transfected with NFAT-Luc assessed as reduction in NFAT reporter activity at 1 uM pretreated for 30 mins prior to PMA/ionomycin activation measured after 6 hrs by luciferase reporter assay. It is filed as cell-based.

In series [2] the target is T1, Peptidyl-prolyl cis-trans isomerase FKBP1A. The experiment in a line: Activation of FKBP12-mediated BMP signaling pathway in human Jurkat cells transfected with BRE-Luc at 1 nM to 1 uM measured after 18 hrs by luciferase reporter assay. It is filed as cell-based. On the technique in general: A reporter such as luciferase makes a cellular process visible.
The test system of series [3] is HUVEC. The experiment in a line: Cytotoxicity against human HUVEC cells assessed as inhibition of cell growth at 1 to 10 uM measured after 72 hrs by resazurin dye based assay. A general note: The colour change of resazurin is a common sign of viable cells or microbes.
The subject of series [4] is HUVEC. Put plainly: Cytotoxicity against human HUVEC cells assessed as inhibition of cell growth at 10 uM measured after 72 hrs by resazurin dye based assay.
In series [5] the target is T1, Peptidyl-prolyl cis-trans isomerase FKBP1A. Put plainly: Induction of FKBP12-mediated SMAD1/5 phosphorylation in human Jurkat cells measured after 2 hrs by Western blot analysis. It is filed as cell-based. For orientation: Immunoblotting shows a protein as a band on a membrane.
For series [6] the target is unchanged. Put plainly: Inhibition of FKBP12-mediated calcineurin activation in PMA/ionomycin stimulated human Jurkat cells transfected with NFAT-Luc assessed as NFAT reporter activity up to 10 uM pretreated for 30 mins prior to PMA/ionomycin activation measured after 6 hrs by luciferase reporter assay. It is filed as cell-based.

The source made the active and inactive calls. No cut-off for these calls is given here.

T1 sequence (P62942 whole entry): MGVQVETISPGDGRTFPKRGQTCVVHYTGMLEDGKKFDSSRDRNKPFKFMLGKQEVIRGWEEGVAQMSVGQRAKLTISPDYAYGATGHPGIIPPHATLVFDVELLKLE

With `CO[C@H]1C[C@@H](C)C/C(C)=C/[C@@H](C/C=C/c2cccc(N)c2)C(=O)C[C@H](O)[C@@H](C)[C@@H](/C(C)=C/[C@@H]2CC[C@@H](O)[C@H](OC)C2)OC(=O)[C@@H]2CCCCN2C(=O)C(=O)[C@]2(O)O[C@H]1[C@@H](OC)C[C@H]2C`, in series [1], the “inhibition (INH)” value is recorded as “Active”. Further, the outcome in series [2] was Active. In addition, the Activity result in the series with HUVEC [3] is “Toxic”.
Regarding `CO[C@H]1C[C@@H](C)C/C(C)=C/[C@@H](C/C=C/c2ccnc3cc(F)ccc23)C(=O)C[C@H](O)[C@@H](C)[C@@H](/C(C)=C/[C@@H]2CC[C@@H](O)[C@H](OC)C2)OC(=O)[C@@H]2CCCCN2C(=O)C(=O)[C@]2(O)O[C@H]1[C@@H](OC)C[C@H]2C`, in series [1], the “inhibition (INH)” value is “Active”. In addition, the result in series [2] was Active. Also, the Activity result in the series on HUVEC [4] is “Toxic”.
Turning to `CO[C@H]1C[C@@H](C)C/C(C)=C/[C@@H](C/C=C/c2ccnc3c(F)c(F)ccc23)C(=O)C[C@H](O)[C@@H](C)[C@@H](/C(C)=C/[C@@H]2CC[C@@H](O)[C@H](OC)C2)OC(=O)[C@@H]2CCCCN2C(=O)C(=O)[C@]2(O)O[C@H]1[C@@H](OC)C[C@H]2C`, in series [1], the “inhibition (INH)” value was “Active”. Moreover, in series [2], the result was Active. Further, the Activity result in the series with HUVEC [4] is on record as “Toxic”.
On to `CO[C@H]1C[C@@H](C)C/C(C)=C/[C@@H](C/C=C/c2ccncc2)C(=O)C[C@H](O)[C@@H](C)[C@@H](/C(C)=C/[C@@H]2CC[C@@H](O)[C@H](OC)C2)OC(=O)[C@@H]2CCCCN2C(=O)C(=O)[C@]2(O)O[C@H]1[C@@H](OC)C[C@H]2C`, for which the outcome in series [2] was Active. The Activity entry in the series with HUVEC [3] was “Toxic”; in series [5], “Dose-dependent effect”. Further, the “inhibition (INH)” value in series [6] is recorded as “Not Active”.
Turning to `CO[C@H]1C[C@@H](C)C/C(C)=C/[C@@H](C/C=C/c2ccc(N)cc2)C(=O)C[C@H](O)[C@@H](C)[C@@H](/C(C)=C/[C@@H]2CC[C@@H](O)[C@H](OC)C2)OC(=O)[C@@H]2CCCCN2C(=O)C(=O)[C@]2(O)O[C@H]1[C@@H](OC)C[C@H]2C`, the “inhibition (INH)” value in series [1] is given as “Active”. Further, in series [2], the outcome was Active. For the same molecule, the Activity entry in the series on HUVEC [3] was “Toxic”.
Take `CO[C@H]1C[C@@H](C)C/C(C)=C/[C@@H](C/C=C/c2ccccc2N)C(=O)C[C@H](O)[C@@H](C)[C@@H](/C(C)=C/[C@@H]2CC[C@@H](O)[C@H](OC)C2)OC(=O)[C@@H]2CCCCN2C(=O)C(=O)[C@]2(O)O[C@H]1[C@@H](OC)C[C@H]2C`: in series [1], the “inhibition (INH)” value is “Active”. Also, the result in series [2] was Active. Besides, the Activity entry with HUVEC [3] is “Toxic”.
Turning to `CNc1ccc(/C=C/C[C@@H]2/C=C(\C)C[C@H](C)C[C@H](OC)[C@H]3O[C@@](O)(C(=O)C(=O)N4CCCC[C@H]4C(=O)O[C@H](/C(C)=C/[C@@H]4CC[C@@H](O)[C@H](OC)C4)[C@H](C)[C@@H](O)CC2=O)[C@H](C)C[C@@H]3OC)cc1`, the “inhibition (INH)” value in series [1] was “Active”. The result in series [2] was Active. The Activity result in the series with HUVEC [3] is on record as “Toxic”.
For the molecule `CO[C@H]1C[C@@H](C)C/C(C)=C/[C@@H](C/C=C/c2ccnc(N)c2)C(=O)C[C@H](O)[C@@H](C)[C@@H](/C(C)=C/[C@@H]2CC[C@@H](O)[C@H](OC)C2)OC(=O)[C@@H]2CCCCN2C(=O)C(=O)[C@]2(O)O[C@H]1[C@@H](OC)C[C@H]2C`, in series [2], the result was Active. In addition, the values for the Activity result (in the series on HUVEC [3]; in series [5]) were “Toxic” and “Dose-dependent effect”, respectively. Also, the “inhibition (INH)” value in series [6] is recorded as “Not Active”.
As to `C=CC[C@@H]1/C=C(\C)C[C@H](C)C[C@H](OC)[C@H]2O[C@@](O)(C(=O)C(=O)N3CCCC[C@H]3C(=O)O[C@H](/C(C)=C/[C@@H]3CC[C@@H](O)[C@H](OC)C3)[C@H](C)[C@@H](O)CC1=O)[C@H](C)C[C@@H]2OC` [TACROLIMUS ANHYDROUS], the “inhibition (INH)” value in series [1] is given as “Active”. For the same molecule, the result in series [2] was Active. The Activity entry in the series on HUVEC [3] is “Toxic”; in series [5] it was “Dose-dependent effect”.
Regarding `CO[C@H]1C[C@@H](C)C/C(C)=C/[C@@H](C/C=C/c2ccncc2N)C(=O)C[C@H](O)[C@@H](C)[C@@H](/C(C)=C/[C@@H]2CC[C@@H](O)[C@H](OC)C2)OC(=O)[C@@H]2CCCCN2C(=O)C(=O)[C@]2(O)O[C@H]1[C@@H](OC)C[C@H]2C`, the outcome in series [2] was Active. For the same molecule, the Activity result is “Toxic” in the series with HUVEC [3] and “Dose-dependent effect” in series [5]. The “inhibition (INH)” value in series [6] was “Not Active”.
In the case of `CO[C@H]1C[C@@H](C)C/C(C)=C/[C@@H](C/C=C/c2ccncc2F)C(=O)C[C@H](O)[C@@H](C)[C@@H](/C(C)=C/[C@@H]2CC[C@@H](O)[C@H](OC)C2)OC(=O)[C@@H]2CCCCN2C(=O)C(=O)[C@]2(O)O[C@H]1[C@@H](OC)C[C@H]2C`, the “inhibition (INH)” value in series [1] is listed as “Active”. Besides, in series [2], the result was Active. For the same molecule, the Activity entry in the series on HUVEC [3] is recorded as “Toxic”.
In the case of `CO[C@H]1C[C@@H](C)C/C(C)=C/[C@@H](C/C=C/c2ccnc3ccccc23)C(=O)C[C@H](O)[C@@H](C)[C@@H](/C(C)=C/[C@@H]2CC[C@@H](O)[C@H](OC)C2)OC(=O)[C@@H]2CCCCN2C(=O)C(=O)[C@]2(O)O[C@H]1[C@@H](OC)C[C@H]2C`, in series [1], the “inhibition (INH)” value is listed as “Active”. Further, the outcome in series [2] was Active. In the series with HUVEC [4], the Activity entry is listed as “Toxic”.

For the origin of these results see ChEMBL document CHEMBL4359923, “One-step Heck Reaction Generates Nonimmunosuppressive FK506 Analogs for Pharmacological BMP Activation” (ACS Med Chem Lett, 2019).
